{"source": "patent US20250255851A1", "about": "“SOLID FORMS OF AN ALDOSTERONE SYNTHASE INHIBITOR” (Boehringer Ingelheim International GmbH, priority 2024, published 2025)", "format_in_all_cases": "physicochemical", "key": {"[1]": {"assay": "Dynamic Vapor Sorption (DVS) water sorption isotherm", "method": "Water sorption isotherms are determined using a dynamic vapor sorption system (Advantage 1, DVS, London, UKDVS Intrinsic Plus, Surface Measurement Systems, Allentown, PA). Approximately 5-10 mg of solid is weighed into a tared aluminum pan. […] Equilibration criteria are dm/dt of 0.002% over 5 minutes or 360 minutes at a specified % RH. Each sample is equilibrated at each RH step for at least 60 min, and equilibrium is assumed if weight increase is less than 0.1% within one minute, and the maximum duration on each RH is 6 hours. Therefore, each sample is held at a given RH for 1 to 6 hours depending on how fast the equilibrium is reached. Exemplary DVS of the compounds of the invention are found in the Figures."}, "[2]": {"assay": "Biopharmaceutics Classification System (BCS) classification"}, "[3]": {"assay": "Stability of crystalline form (resistance to change in crystalline form)", "from_the_text": "However, these solvate of Compound 1 are generally not as stable (for example, resistant to change in crystalline form) as Form I and Form X. This lack of stability generally requires special processing and storage conditions for the solvates, thus making them less desirable as a component of a solid form of a pharmaceutical preparation. […] Alternatively, processes for preparing Compound 1 may involve formation of a crystalline solvate form of Compound 1 as an intermediate step prior to final preparation of Form I or Form X. For example, the purification and/or isolation of the crystalline solvates of Compound 1 may be used to remove impurities prior to conversion of the crystalline solvates to Form I and/or Form X using methods described herein.\nDespite the lower stability of the other crystalline forms of Compound 1 (Forms II, Ill, IV, VI, VII and IX), the other crystalline forms are still useful as intermediates to prepare Form I and/or Form X as described herein."}, "[4]": {"assay": "Storage stability of solid form samples at controlled temperature and relative humidity", "conditions": "at least 9 months at 25° and 60% and at least 6 months at 40° and 75% relative humidity; both storage conditions", "method": "Samples of Form I were maintained for at least 9 months at 25°, and 60% and at least 6 months at 40° and 75% relative humidity.\nSamples of Form X were maintained for at least 9 months at 25°, and 60% and at least 6 months at 40° and 75% relative humidity."}}, "data": [{"compound": "C[C@]1(CO)Cc2ncn(-c3ccc(C#N)c(Cl)c3)c2C(=O)O1", "note": "[Form VI, 2-chloro-4-[(6R)-6-(hydroxymethyl)-6-methyl-4-oxo-3H,4H,6H,7H-pyrano[3,4-d]imidazol-3-yl]benzonitrile]", "values": [{"measurement": "solid form transformation during DVS (solvent replaced by water)", "setting": "[1]; DVS cycles, 25° C.", "result": "transformed to a mixture of Form I and Form III"}, {"measurement": "mass stability over humidity range (DVS profile)", "setting": "[1]; sharp descending step when 80% RH was reached", "result": "stable over a wide humidity range from RH=0 to the 80%"}]}, {"compound": "C[C@]1(CO)Cc2ncn(-c3ccc(C#N)c(Cl)c3)c2C(=O)O1", "note": "[Form I, 2-chloro-4-[(6R)-6-(hydroxymethyl)-6-methyl-4-oxo-3H,4H,6H,7H-pyrano[3,4-d]imidazol-3-yl]benzonitrile]", "values": [{"measurement": "water uptake (DVS)", "setting": "[1]; at 95% Rh during the second cycle, 25° C.", "result": "about 0.4 % (wt.)"}, {"measurement": "hygroscopicity (from DVS plot)", "setting": "[1]; second DVS cycle", "result": "non-hygroscopic"}, {"measurement": "BCS class", "setting": "[2]", "result": "class 1"}, {"measurement": "relative stability of crystalline form (resistance to change in form)", "setting": "[3]; compared with Form II, Form III and the crystalline solvate forms", "result": "more stable"}, {"measurement": "impurity levels after storage", "setting": "[4]", "result": "no increase in impurity levels"}, {"measurement": "particle size distribution after storage", "setting": "[4]", "result": "no change in particle sized distribution"}, {"measurement": "solid form after storage", "setting": "[4]", "result": "no change in solid form"}, {"measurement": "water content after storage", "setting": "[4]", "result": "no increase in water content"}]}, {"compound": "C[C@]1(CO)Cc2ncn(-c3ccc(C#N)c(Cl)c3)c2C(=O)O1", "note": "[Form X, 2-chloro-4-[(6R)-6-(hydroxymethyl)-6-methyl-4-oxo-3H,4H,6H,7H-pyrano[3,4-d]imidazol-3-yl]benzonitrile]", "values": [{"measurement": "water uptake (DVS)", "setting": "[1]; at 90% Rh during the second cycle, 25° C.", "result": "about 0.07%"}]}, {"compound": "C[C@]1(CO)Cc2ncn(-c3ccc(C#N)c(Cl)c3)c2C(=O)O1", "note": "[Form IV, 2-chloro-4-[(6R)-6-(hydroxymethyl)-6-methyl-4-oxo-3H,4H,6H,7H-pyrano[3,4-d]imidazol-3-yl]benzonitrile]", "values": [{"measurement": "conversion of crystalline form", "setting": "[3]; at elevated temperature and/or under high humidity", "result": "convert to Form I and/or Form X"}]}]}
